Data as given in paper PMC10648349, “Aromatic Diboronic Acids as Effective KPC/AmpC Inhibitors” (Molecules, 2023).
In brackets after ≈: the same amount, converted by molar mass.

Assays:
[1] = tested on: S. epidermidis ATCC 12228; assay: direct antimicrobial activity (disc-diffusion, MIC, MBC); format: cell-based; settings: Staphylococcus epidermidis, ATCC12228; for zone of inhibition at 0.4 mg/disc: 0.4 mg per disc, 9 mm disc (linezolid 0.03 mg, 6 mm disc), - no zone, read-out: Diameter of inhibition zone
Outline: (§1)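 Disc-diffusion (0.4 mg compound per disc, DMSO solutions), MIC, and MBC for bacteria or MFC for yeasts, run per EUCAST and CLSI recommendations. References: nitrofurantoin for Gram-negative rods, linezolid for Gram-positive bacteria, fluconazole for fungi.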

E. faecalis ATCC 29212 = assay: as above; format: cell-based; settings: Enterococcus faecalis, ATCC29212; for zone of inhibition at 0.4 mg/disc: 0.4 mg per disc, 9 mm disc (linezolid 0.03 mg, 6 mm disc), - no zone, read-out: Diameter of inhibition zone
Outline: as §1

S. aureus ATCC 6538P = assay: as above; format: cell-based; settings: Staphylococcus aureus, ATCC6538P; for zone of inhibition at 0.4 mg/disc: 0.4 mg per disc, 9 mm disc (linezolid 0.03 mg, 6 mm disc), - no zone, read-out: Diameter of inhibition zone
Outline: as §1

[2] = tested on: S. aureus ATCC 43300 MRSA; assay: as above; format: cell-based; settings: Staphylococcus aureus; for zone of inhibition at 0.4 mg/disc: 0.4 mg per disc, 9 mm disc (linezolid 0.03 mg, 6 mm disc), - no zone, read-out: Diameter of inhibition zone
Outline: as §1

E. faecium ATCC 6057 = assay: as above; format: cell-based; settings: Enterococcus faecium, ATCC6057; for zone of inhibition at 0.4 mg/disc: 0.4 mg per disc, 9 mm disc (linezolid 0.03 mg, 6 mm disc), - no zone, read-out: Diameter of inhibition zone
Outline: as §1

[3] = tested on: E. coli 77 CMY-2-positive; assay: combination disc test CDT-AmpC; format: cell-based; settings: Escherichia coli; agent 0.3 mg per disc; read-out: Diameter of inhibition zone, CAZ-30 disc with agent
C. krusei ATCC 6258 = assay: antifungal activity (disc-diffusion, MIC, MFC); format: cell-based, Candida krusei; settings: Pichia kudriavzevii, ATCC6258; for zone of inhibition at 0.4 mg/disc: 0.4 mg per disc, 9 mm disc (fluconazole 0.025 mg, 6 mm disc), - no zone, read-out: Diameter of inhibition zone; for MIC: fluconazole by Etest
Outline: as §1

B. subtilis ATCC 6633 = assay: direct antimicrobial activity (disc-diffusion); format: cell-based; settings: Bacillus subtilis, ATCC6633; 0.4 mg per disc, 9 mm disc (linezolid 0.03 mg, 6 mm disc); - no zone; read-out: Diameter of inhibition zone
Experimental: Direct antimicrobial activity against Gram-negative and Gram-positive bacterial strains, as well as against yeast, was examined as previously described by the disc-diffusion test, the MIC determination assay, the MBC (for bacteria), and the MFC (for yeasts) determination tests. All the above-mentioned tests were performed according to EUCAST [71, 72] and CLSI [73, 74, 75, 76, 77] recommendations. The following reference agents were used: nitrofurantoin (for Gram-negative rods), linezolid (for Gram-positive bacteria), and fluconazole (in the case of fungi). The new aromatic diboronic acids were dissolved in DMSO (Sigma, St. Louis, MO, USA). In the disc-diffusion test, the concentration of new agents was 0.4 mg per disc.

[4] = tested on: C. parapsilosis ATCC 22019; assay: antifungal activity (disc-diffusion, MIC, MFC); format: cell-based, Candida parapsilosis; settings: Lodderomyces parapsilosis, ATCC22019; for zone of inhibition at 0.4 mg/disc: 0.4 mg per disc, 9 mm disc (fluconazole 0.025 mg, 6 mm disc), - no zone, read-out: Diameter of inhibition zone; for MIC: fluconazole by Etest
Outline: as §1

[5] = MTT-based viability assay; format: cell-based; settings: human, MRC-5 human fibroblasts, 72 h; for viability at 72 h, 12.5 mg/L / viability at 72 h, 25 mg/L / viability at 72 h, 50 mg/L: read-out: Viability of MRC-5 cells (% of viable cells ± SD); for viability at 72 h: 12.5, 25 and 50 mg/L
Outline: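 MRC-5 human fibroblasts grown in MEME with 10% FBS at 37 °C, 5% CO2, tested by MTT with absorbance read at 570 nm. Viability given as percent of untreated control cells, in triplicate.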

C. tropicalis ATCC 750 = assay: antifungal activity (disc-diffusion, MIC, MFC); format: cell-based; settings: Candida tropicalis, ATCC750; for zone of inhibition at 0.4 mg/disc: 0.4 mg per disc, 9 mm disc (fluconazole 0.025 mg, 6 mm disc), - no zone, read-out: Diameter of inhibition zone; for MIC: fluconazole by Etest
Outline: as §1

C. tropicalis IBA 171 = assay: antifungal activity (disc-diffusion, MIC, MFC); format: cell-based; settings: Candida tropicalis, IBA171; for MIC: fluconazole by Etest
Outline: as §1

C. albicans ATCC 90028 = assay: antifungal activity (disc-diffusion, MIC, MFC); format: cell-based; settings: Candida albicans, ATCC90028; for MIC: fluconazole by Etest; for zone of inhibition at 0.4 mg/disc: 0.4 mg per disc, 9 mm disc (fluconazole 0.025 mg, 6 mm disc), - no zone, read-out: Diameter of inhibition zone
Outline: as §1

S. cerevisiae ATCC 9763 = assay: antifungal activity (disc-diffusion, MIC, MFC); format: cell-based; settings: Saccharomyces cerevisiae, ATCC9763; for zone of inhibition at 0.4 mg/disc: 0.4 mg per disc, 9 mm disc (fluconazole 0.025 mg, 6 mm disc), - no zone, read-out: Diameter of inhibition zone; for MIC: fluconazole by Etest
Outline: as §1

[6] = tested on: K. pneumoniae ATCC BAA 1705 KPC-2-positive; assay: combination disc test CDT-KPC; format: cell-based; settings: Klebsiella pneumoniae, BAA1705; agent 0.3 mg per disc; read-out: Diameter of inhibition zone, MEM-10 disc with agent
[7] = tested on: P. aeruginosa MUW 700 cAmpC-positive; assay: combination disc test CDT-AmpC; format: cell-based; settings: Pseudomonas aeruginosa; agent 0.3 mg per disc; read-out: Diameter of inhibition zone, CAZ-30 disc with agent

SMILES	MIC [1] [µg/mL]	zone of inhibition at 0.4 mg/disc [1] [mm]	MIC (E. faecalis ATCC 29212) [µg/mL]	zone of inhibition at 0.4 mg/disc (E. faecalis ATCC 29212) [mm]	MIC (S. aureus ATCC 6538P) [µg/mL]	zone of inhibition at 0.4 mg/disc (S. aureus ATCC 6538P) [mm]	MIC [2] [µg/mL]	zone of inhibition at 0.4 mg/disc [2] [mm]	MIC (E. faecium ATCC 6057) [µg/mL]	zone of inhibition at 0.4 mg/disc (E. faecium ATCC 6057) [mm]	zone of inhibition at 0.4 mg/disc (C. krusei ATCC 6258) [mm]	MIC (C. krusei ATCC 6258) [µg/mL]	zone of inhibition at 0.4 mg/disc (B. subtilis ATCC 6633) [mm]	zone of inhibition at 0.4 mg/disc [4] [mm]	MIC [4] [µg/mL]	viability at 72 h, 12.5 mg/L [5] [%]	viability at 72 h, 25 mg/L [5] [%]	viability at 72 h, 50 mg/L [5] [%]	zone of inhibition at 0.4 mg/disc (C. tropicalis ATCC 750) [mm]	MIC (C. tropicalis ATCC 750) [µg/mL]	other results
OB(O)c1ccc(C(F)(F)F)cc1B(O)O [3e]	200 (≈ 856 µM)	21	200 (≈ 856 µM)	14	100 (≈ 428 µM)	17	400 (≈ 1710 µM)	15	200 (≈ 856 µM)	13	23	25 (≈ 107 µM)	22	30	12.5 (≈ 53.5 µM)	98.8 ± 25.6	92.9 ± 2.7	64.4 ± 0.4	28	12.5 (≈ 53.5 µM)	zone of inhibition at 300 µg/disc [3]: 17 mm; MFC (C. tropicalis IBA 171): 400 µg/mL (≈ 1710 µM); MIC (C. tropicalis IBA 171): 6.25 µg/mL (≈ 26.7 µM); MFC (C. albicans ATCC 90028): 400 µg/mL (≈ 1710 µM); MIC (C. albicans ATCC 90028): 6.25 µg/mL (≈ 26.7 µM); zone of inhibition at 0.4 mg/disc (S. cerevisiae ATCC 9763): 23 mm; MIC (S. cerevisiae ATCC 9763): 50 µg/mL (≈ 214 µM); zone of inhibition at 300 µg/disc [6]: 6 mm; zone of inhibition at 300 µg/disc [7]: 17 mm
O=Cc1cc(F)ccc1B(O)O [7b]	50 (≈ 298 µM)	30	200 (≈ 1190 µM)	14	50 (≈ 298 µM)	19	50 (≈ 298 µM)	20	200 (≈ 1190 µM)	14	28	25 (≈ 149 µM)	22	17	12.5 (≈ 74.4 µM)	48.9 ± 3.8	6.4 ± 1.4	0.9 ± 0.7	21	50 (≈ 298 µM)	MBC [1]: 100 µg/mL (≈ 595 µM); MBC (S. aureus ATCC 6538P): 100 µg/mL (≈ 595 µM); viability at 72 h [5]: 0 to 56.4%; zone of inhibition at 0.4 mg/disc (C. tropicalis IBA 171; 0.4 mg per disc, 9 mm disc (fluconazole 0.025 mg, 6 mm disc), - no zone, read-out: Diameter of inhibition zone): 22 mm; MIC (C. tropicalis IBA 171): 50 µg/mL (≈ 298 µM); zone of inhibition at 0.4 mg/disc (C. albicans ATCC 90028): 31 mm; MIC (C. albicans ATCC 90028): 6.25 µg/mL (≈ 37.2 µM); zone of inhibition at 0.4 mg/disc (S. cerevisiae ATCC 9763): 35 mm; MIC (S. cerevisiae ATCC 9763): 6.25 µg/mL (≈ 37.2 µM)
OB(O)c1ccccc1S [7c, 2-mercaptophenylboronic acid]	12.5 (≈ 81.2 µM)	30	25 (≈ 162 µM)	23	12.5 (≈ 81.2 µM)	23	25 (≈ 162 µM)	22	12.5 (≈ 81.2 µM)	25	16	50 (≈ 325 µM)	26	29	50 (≈ 325 µM)	56.4 ± 3	6.6 ± 5.1	0	20	50 (≈ 325 µM)	zone of inhibition at 300 µg/disc [3]: 16 mm; viability at 72 h [5]: 0 to 56.4%; MFC (C. tropicalis ATCC 750): 200 µg/mL (≈ 1300 µM); MFC (C. tropicalis IBA 171): 100 µg/mL (≈ 649 µM); MIC (C. tropicalis IBA 171): 12.5 µg/mL (≈ 81.2 µM); MFC (C. albicans ATCC 90028): 200 µg/mL (≈ 1300 µM); zone of inhibition at 0.4 mg/disc (C. albicans ATCC 90028): 33 mm; MIC (C. albicans ATCC 90028): 50 µg/mL (≈ 325 µM); MFC (S. cerevisiae ATCC 9763): 25 µg/mL (≈ 162 µM); zone of inhibition at 0.4 mg/disc (S. cerevisiae ATCC 9763): 34 mm; MIC (S. cerevisiae ATCC 9763): 12.5 µg/mL (≈ 81.2 µM); zone of inhibition at 300 µg/disc [6]: 13 mm; zone of inhibition at 300 µg/disc [7]: 11 mm
